Experimental data as given in patent US9309248B2, “Azaindolines” (Hoffmann-La Roche Inc., priority 2012, dated 2016).

Key:
BIR2 domain of XIAP = molecular target: T1, BIR2 domain of XIAP (Homo sapiens, UniProt P98170, C202A/C213G); test: TR-FRET assay for BIR2 (inhibition of binding of XIAP BIR2 domain to SMAC-derived Peptide A); conditions: 6x Histidine-tagged BIR2 domain (amino acids 124-240 of XIAP) 10 nM, Peptide A 20 nM
T1 construct: 6× Histidine-tagged BIR2 domain, corresponding to amino acids 124-240 of XIAP
Method: (§1) TR-FRET Assay for BIR2 and BIR3
(§2) The ability of a test compound to inhibit the binding of BIR2 and/or BIR3 domains of the XIAP protein to Peptide A (a SMAC-derived peptide described below) evidences that the test compound acts as a SMAC-mimetic resulting in reactivation of a cell's apoptotic pathway.
(§3) The peptides were labeled with the fluorescent tags FITC or TAMRA and Kd values were determined by fluorescence polarization assay. […] The peptide sequence was derivatized with biotin to provide […]-(ε-biotin)-OH 1:2 TFA as the substrate for the TR-FRET assay.
The XIAP protein sequence was obtained from the SWISS-PROT protein sequence database and the BIR2 and BIR3 domains were derived from that. The sequence of the BIR2 domain used for the TR-FRET assay is […].
Time-resolved fluorescence resonance energy transfer (TR-FRET) signals were measured 1 hour later at room temperature. Test compound potency was assessed at 10 serially diluted concentrations. Percentage of inhibition at each concentration was determined to generate an IC50 value for each test compound.

BIR3 domain of XIAP = molecular target: T2, BIR3 domain of XIAP (Homo sapiens, UniProt P98170); test: TR-FRET assay for BIR3 (inhibition of binding of XIAP BIR3 domain to SMAC-derived Peptide A); conditions: 6x Histidine-tagged BIR3 domain (amino acids 241-356 of XIAP) 10 nM, Peptide A 20 nM
T2 construct: BIR3 domain, corresponding to amino acids 241-356 of XIAP
Method: as §1, §2, §3
The sequence of the BIR3 domain used for the TR-FRET assay is […]
Ten nanomolar of 6× Histidine-tagged BIR2 domain, corresponding to amino acids 124-240 of XIAP, or BIR3 domain, corresponding to amino acids 241-356 of XIAP, was mixed with 20 nM of the peptide […]-(z-biotin)-OH 1:2 TFA, in the presence of 50 mM Tris-Cl, pH 7.5, 100 mM NaCl, 1 mM dithiothreitol (DTT) and 0.1 mg/mL bovine serum albumin (BSA). Following a […] incubation at 37° C., Europium-Streptavidin and Allophycocyanin conjugated anti-Histidine antibody were added to a final concentration of 1.5 nM and 15 nM, respectively. Time-resolved fluorescence resonance energy transfer (TR-FRET) signals were measured 1 hour later at room temperature. Test compound potency was assessed at 10 serially diluted concentrations. Percentage of inhibition at each concentration was determined to generate an IC50 value for each test compound.

T2 sequence (P98170 with tags, fused parts or gaps): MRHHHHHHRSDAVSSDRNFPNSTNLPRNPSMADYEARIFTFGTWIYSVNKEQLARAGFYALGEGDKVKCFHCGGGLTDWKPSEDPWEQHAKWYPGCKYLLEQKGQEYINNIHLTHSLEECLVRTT
T1 sequence (P98170 with tags, fused parts or gaps C202A/C213G): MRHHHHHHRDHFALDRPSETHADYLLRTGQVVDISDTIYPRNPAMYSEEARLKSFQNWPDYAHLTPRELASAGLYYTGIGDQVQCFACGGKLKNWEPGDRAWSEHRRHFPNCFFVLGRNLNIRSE

Structure (SMILES) | IC50 (BIR2 domain of XIAP) | IC50 (BIR3 domain of XIAP)
CN[C@@H](C)C(=O)N[C@H](C(=O)N1c2ncccc2C[C@H]1C(=O)Nc1cc(F)cc(F)c1)C(C)C [Example 23, (S)-1-[(S)-3-Methyl-2-((S)-2-methylamino-propionylamino)-butyryl]-2,3-dihydro-1H-pyrrolo[2,3-b]pyridine-2-carboxylic acid (3,5-difluoro-phenyl)-amide] | 427 nM | > 54800 nM
CN[C@@H](C)C(=O)N[C@H](C(=O)N1c2ncccc2C[C@H]1C(=O)NCc1ccc(F)cc1)C(C)C [Example 24, (S)-1-[(S)-3-Methyl-2-((S)-2-methylamino-propionylamino)-butyryl]-2,3-dihydro-1H-pyrrolo[2,3-b]pyridine-2-carboxylic acid 4-fluoro-benzylamide] | 774 nM | 9210 nM
CN[C@@H](C)C(=O)N[C@H](C(=O)N1c2ncccc2C[C@H]1C(=O)Nc1ccccc1Cl)C(C)C [Example 25, (S)-1-[(S)-3-Methyl-2-((S)-2-methylamino-propionylamino)-butyryl]-2,3-dihydro-1H-pyrrolo[2,3-b]pyridine-2-carboxylic acid (2-chloro-phenyl)-amide] | 25.4 nM | > 54800 nM
CN[C@@H](C)C(=O)N[C@H](C(=O)N1c2ncccc2C[C@H]1C(=O)Nc1ccccc1C(=O)c1ccccc1)C(C)C [Example 26, (S)-1-[(S)-3-Methyl-2-((S)-2-methylamino-propionylamino)-butyryl]-2,3-dihydro-1H-pyrrolo[2,3-b]pyridine-2-carboxylic acid (2-benzoyl-phenyl)-amide] | 61 nM | 52300 nM
CN[C@@H](C)C(=O)N[C@H](C(=O)N1c2ncccc2C[C@@H]1C(=O)Nc1ccccc1C(=O)c1ccccc1)C(C)C [Example 27, (R)-1-[(S)-3-Methyl-2-((S)-2-methylamino-propionylamino)-butyryl]-2,3-dihydro-1H-pyrrolo[2,3-b]pyridine-2-carboxylic acid (2-benzoyl-phenyl)-amide] | 2110 nM | > 54800 nM
CN[C@@H](C)C(=O)N[C@H](C(=O)N1c2ncccc2C[C@H]1C(=O)Nc1c(F)cccc1F)C(C)C [Example 28, (S)-1-[(S)-3-Methyl-2-((S)-2-methylamino-propionylamino)-butyryl]-2,3-dihydro-1H-pyrrolo[2,3-b]pyridine-2-carboxylic acid (2,6-difluoro-phenyl)-amide] | 14.4 nM | > 54800 nM
CN[C@@H](C)C(=O)N[C@H](C(=O)N1c2ncccc2C[C@@H]1C(=O)Nc1c(F)cccc1F)C(C)C [Example 29, (R)-1-[(S)-3-Methyl-2-((S)-2-methylamino-propionylamino)-butyryl]-2,3-dihydro-1H-pyrrolo[2,3-b]pyridine-2-carboxylic acid (2,6-difluoro-phenyl)-amide] | 421 nM | > 54800 nM
CN[C@@H](C)C(=O)N[C@H](C(=O)N1c2ncccc2C[C@H]1C(=O)Nc1ccccc1Oc1ccccc1)C(C)C [Example 30, (S)-1-[(S)-3-Methyl-2-((S)-2-methylamino-propionylamino)-butyryl]-2,3-dihydro-1H-pyrrolo[2,3-b]pyridine-2-carboxylic acid (2-phenoxy-phenyl)-amide] | 158 nM | 46800 nM
CN[C@@H](C)C(=O)N[C@H](C(=O)N1c2ncccc2C[C@@H]1C(=O)Nc1ccccc1Oc1ccccc1)C(C)C [Example 31, (R)-1-[(S)-3-Methyl-2-((S)-2-methylamino-propionylamino)-butyryl]-2,3-dihydro-1H-pyrrolo[2,3-b]pyridine-2-carboxylic acid (2-phenoxy-phenyl)-amide] | 11700 nM | > 54800 nM
CN[C@@H](C)C(=O)N[C@H](C(=O)N1c2ncccc2C[C@H]1C(=O)Nc1c(C)cccc1F)C(C)C [Example 32, (S)-1-[(S)-3-Methyl-2-((S)-2-methylamino-propionylamino)-butyryl]-2,3-dihydro-1H-pyrrolo[2,3-b]pyridine-2-carboxylic acid (2-fluoro-6-methyl-phenyl)-amide] | 9.59 nM | > 54800 nM
CN[C@@H](C)C(=O)N[C@H](C(=O)N1c2ncccc2C[C@H]1C(=O)Nc1c(C)cccc1C)C(C)C [Example 33, (S)-1-[(S)-3-Methyl-2-((S)-2-methylamino-propionylamino)-butyryl]-2,3-dihydro-1H-pyrrolo[2,3-b]pyridine-2-carboxylic acid (2,6-dimethyl-phenyl)-amide] | 44.9 nM | > 54800 nM
CN[C@@H](C)C(=O)N[C@H](C(=O)N1c2ncccc2C[C@H]1c1nc2ccccc2[nH]1)C(C)C [Example 34, (S)—N—{(S)-1-[(S)-2-(1H-Benzoimidazol-2-yl)-2,3-dihydro-pyrrolo[2,3-b]pyridine-1-carbonyl]-2-methyl-propyl}-2-methylamino-propionamide] | 137 nM | > 54800 nM
CN[C@@H](C)C(=O)N[C@H](C(=O)N1c2ncccc2C[C@@H]1c1nc2ccccc2[nH]1)C(C)C [Example 35, (S)—N—{(S)-1-[(R)-2-(1H-Benzoimidazol-2-yl)-2,3-dihydro-pyrrolo[2,3-b]pyridine-1-carbonyl]-2-methyl-propyl}-2-methylamino-propionamide] | 37700 nM | > 54800 nM
CN[C@@H](C)C(=O)N[C@H](C(=O)N1c2ncccc2C[C@H]1C(=O)Nc1ccccc1F)C(C)C [Example 36, (S)-1-[(S)-3-Methyl-2-((S)-2-methylamino-propionylamino)-butyryl]-2,3-dihydro-1H-pyrrolo[2,3-b]pyridine-2-carboxylic acid (2-fluoro-phenyl)-amide] | 12.7 nM | > 54800 nM
CN[C@@H](C)C(=O)N[C@H](C(=O)N1c2ncccc2C[C@H]1C(=O)NCC(F)(F)F)C(C)C [Example 37, (S)-1-[(S)-3-Methyl-2-((S)-2-methylamino-propionylamino)-butyryl]-2,3-dihydro-1H-pyrrolo[2,3-b]pyridine-2-carboxylic acid (2,2,2-trifluoro-ethyl)-amide] | 323 nM | > 54800 nM
CN[C@@H](C)C(=O)N[C@H](C(=O)N1c2ncccc2C[C@H]1C(=O)Nc1cnccc1C)C(C)C [Example 38, (S)-1-[(S)-3-Methyl-2-((S)-2-methylamino-propionylamino)-butyryl]-2,3-dihydro-1H-pyrrolo[2,3-b]pyridine-2-carboxylic acid (4-methyl-pyridin-3-yl)-amide] | 237 nM | > 54800 nM
CN[C@@H](C)C(=O)N[C@H](C(=O)N1c2ncccc2C[C@H]1C(=O)Nc1cccc(F)c1)C(C)C [Example 39, (S)-1-[(S)-3-Methyl-2-((S)-2-methylamino-propionylamino)-butyryl]-2,3-dihydro-1H-pyrrolo[2,3-b]pyridine-2-carboxylic acid (3-fluoro-phenyl)-amide] | 226 nM | > 54800 nM
CCc1ccccc1NC(=O)[C@@H]1Cc2cccnc2N1C(=O)[C@@H](NC(=O)[C@H](C)NC)C(C)C [Example 40, (S)-1-[(S)-3-Methyl-2-((S)-2-methylamino-propionylamino)-butyryl]-2,3-dihydro-1H-pyrrolo[2,3-b]pyridine-2-carboxylic acid (2-ethyl-phenyl)-amide] | 104 nM | > 54800 nM
CN[C@@H](C)C(=O)N[C@H](C(=O)N1c2ncccc2C[C@H]1C(=O)Nc1ccc(C2CCNCC2)cc1)C(C)C [Example 41, (S)-1-[(S)-3-Methyl-2-((S)-2-methylamino-propionylamino)-butyryl]-2,3-dihydro-1H-pyrrolo[2,3-b]pyridine-2-carboxylic acid (4-piperidin-4-yl-phenyl)-amide] | 701 nM | > 54800 nM
CN[C@@H](C)C(=O)N[C@H](C(=O)N1c2ncccc2C[C@H]1C(=O)Nc1ccc(C(=O)c2ccccc2)cc1)C(C)C [Example 42, (S)-1-[(S)-3-Methyl-2-((S)-2-methylamino-propionylamino)-butyryl]-2,3-dihydro-1H-pyrrolo[2,3-b]pyridine-2-carboxylic acid (4-benzoyl-phenyl)-amide] | 847 nM | > 54800 nM
CN[C@@H](C)C(=O)N[C@H](C(=O)N1c2ncccc2C[C@H]1C(=O)Nc1cccc(C)c1C)C(C)C [Example 43, (S)-1-[(S)-3-Methyl-2-((S)-2-methylamino-propionylamino)-butyryl]-2,3-dihydro-1H-pyrrolo[2,3-b]pyridine-2-carboxylic acid (2,3-dimethyl-phenyl)-amide] | 71.1 nM | > 54800 nM
